# How the values were obtained:
# Assay type in all cases: in vitro ADME, human
# Caco-2 cells [1] = experiment: in vitro
# Procedure: (§1) A precise amount of FRLE reserve solution is diluted to concentrations of 50, 100, and 150 μg/mL, representing the low, medium, and high concentrations of FRLE. Additionally, solutions are prepared containing 0.100 μmoL/mL Verapamil (Ver), 0.099 μmoL/mL Cyclosporine A (CsA), and 0.025 μmoL/mL EGTA at low, medium, and high concentrations for bidirectional transport.
# (§2) Caco-2 cells are seeded at a density of 2.5 × 10^5 cells/mL, with 0.5 mL inoculated into each well of a Transwell® 12-well plate. After continuous culturing for 18 days, the cell model is established. Bidirectional transport experiments include AP→BL ([…], absorption transport) and BL→AP ([…], secretion transport).
# (§3) Taking absorption transport as an example: 0.5 mL of drug-containing Hank’s Balanced Salt Solution (HBSS) solution is added to the apical (AP) side (supply side), while 1.5 mL of blank solution is added to the basolateral (BL) side (receiving side). At time points 15, 30, 60, 90, 120, 150, and 180 min, 200 µL is drawn from the BL side and simultaneously supplemented with 200 µL of HBSS buffer. The samples are then evaporated in a water bath, re-dissolved in methanol, and centrifuged at 12,000 rpm for 10 min. The supernatant is taken and assayed under the conditions described in “Establishment of the determination method for euscaphic acid and tiliroside”. The effects of different times, concentrations, inhibitors, chelating agents, and pH values on the absorption characteristics of euscaphic acid and tiliroside in FRLE are investigated. The secretion transport procedure is identical to the absorption transport ([Artursson & Karlsson, 1991]).
# (§4) The side with the added blank solution is considered the receiving side, and the amount of drug in the receiving side is regarded as its absorption amount (Qr). In the A→B transport test, the amount of drug absorbed by the B-side chamber at any time point is denoted as (QrBi). In the B→A transport test, the amount of drug absorbed by the A-side chamber at any time point is (QrAi). The specific calculations are provided in the following formulas:
# (§5) A-B transport: QrBi = 0.2 × (Cr1 + Cr2 + Λ + Cr(i-1)) + 1.5 × Cri
# (§6) B-A transport: Qrdi = 0.2 × (Cr1 + Cr2 + Λ + Cr(i-1)) + 0.5 × Cdi
# (§7) In the formula, 1.5 represents the volume of the test solution added to the B-side chamber (mL), 0.5 represents the volume of the test solution added to the A-side chamber (mL), and 0.2 is the volume of each sample taken (mL). Cri is the actual concentration in the receiving chamber at the i-th time point (μg/mL). The apparent permeability coefficient Papp (cm/s) is calculated using the following formula ([Lu et al., 2020]):
# (§8) Papp=dQ/dt×1/A×C0 dQ/dt represents the amount of drug transported per unit of time (μg/s); A is the surface area of the 12-well Transwell® membrane (1.12 cm^2), and C0 is the initial concentration of the drug in the donor side ([…]) ([Qu et al., 2021]).
# (§9) Exhaust ratio (RB-A/A-B)) is calculated using the following formula: RB−A/A−B=Papp(B−A)/Papp(A−B)
# P-gp = experiment: in vitro; settings: human
# Procedure: as §1, §2, §3, §4, §5, §6, §7, §8, §9
# in vitro = settings: human
# Procedure: as §1, §2, §3, §4, §5, §6, §7, §8, §9
# Caco-2 cells [2] = experiment: Evaluation of the Caco-2 cell model with fluorescein sodium as marker (Papp, monolayer integrity); settings: Caco-2 monolayer, four repeated measurements
# Procedure: The evaluation of the Caco-2 cell model primarily involves using fluorescein sodium as a marker. The cells are seeded in a 12-well cell plate (10^5 cells/well) and observed and photographed every two days under a fluorescence inverted microscope. The transepithelial electrical resistance (TEER) is measured using a resistance meter (Millipore Millicell ERS-2; Millipore Sigma, Darmstadt, Germany). […] Markers used for detection mainly include mannitol, inulin, and fluorescein sodium.
# [3] = Caco-2, Papp × 10^−4 (cm/s) (A→B)
# [4] = Caco-2, Papp × 10^−4 (cm/s) (B→A)
# [5] = Caco-2, pH 5, Papp × 10^−4 (cm/s) (A→B)
# [6] = Caco-2, pH 5, Papp × 10^−4 (cm/s) (B→A)
# [7] = Caco-2, pH 6, Papp × 10^−4 (cm/s) (A→B)
# [8] = Caco-2, pH 6, Papp × 10^−4 (cm/s) (B→A)
# [9] = Caco-2, pH 8, Papp × 10^−4 (cm/s) (A→B)
# [10] = Caco-2, pH 8, Papp × 10^−4 (cm/s) (B→A)
# [11] = Caco-2, pH 9, Papp × 10^−4 (cm/s) (A→B)
# [12] = Caco-2, pH 9, Papp × 10^−4 (cm/s) (B→A)
smiles,measurement,setting,value
O=C(/C=C/c1ccc(O)cc1)OC[C@H]1O[C@@H](Oc2c(-c3ccc(O)cc3)oc3cc(O)cc(O)c3c2=O)[C@H](O)[C@@H](O)[C@@H]1O [Tiliroside],P-gp substrate status,Caco-2 cells [1]; Caco-2,substrates of P-gp
same,absorption category from Papp,Caco-2 cells [1]; Caco-2,good absorption
same,transport mechanism,Caco-2 cells [1]; Caco-2,passive diffusion
same,Papp,"Caco-2 cells [1]; human, Caco-2, 180 min",greater than 10^−6
same,"RB→A/A→B ratios, range over all conditions","Caco-2 cells [1]; human, Caco-2, 180 min",0.75-1.31
same,RB→A/A→B,"Caco-2 cells [1]; human, Caco-2, 180 min, 100 μg/mL, pH 6",1.31 ± 0.05
same,RB→A/A→B,"Caco-2 cells [1]; human, Caco-2, 180 min, 100 μg/mL, pH 9",1.03 ± 0.04
same,RB→A/A→B,"Caco-2 cells [1]; human, Caco-2, 180 min, 150 μg/mL, pH 6",1.21 ± 0.15
same,RB→A/A→B,"Caco-2 cells [1]; human, Caco-2, 180 min, 150 μg/mL, pH 8",1.03 ± 0.05
same,RB→A/A→B,"Caco-2 cells [1]; human, Caco-2, 180 min, 150 μg/mL, pH 9",1.06 ± 0.05
same,"Papp A→B at 180 min, 50 μg/mL",P-gp; [3],142 ± 2 ×10⁻⁶ cm/s
same,"Papp A→B at 180 min, 100 μg/mL",P-gp; [3],180 ± 5 ×10⁻⁶ cm/s
same,"Papp A→B at 180 min, 150 μg/mL",P-gp; [3],261 ± 6 ×10⁻⁶ cm/s
same,"Papp B→A at 180 min, 50 μg/mL",P-gp; [4],156 ± 3 ×10⁻⁶ cm/s
same,"Papp B→A at 180 min, 100 μg/mL",P-gp; [4],226 ± 9 ×10⁻⁶ cm/s
same,"Papp B→A at 180 min, 150 μg/mL",P-gp; [4],276 ± 1 ×10⁻⁶ cm/s
same,"efflux ratio at 180 min, 50 μg/mL","P-gp; Caco-2, RB→A/A→B",1.09 ± 0.03
same,"efflux ratio at 180 min, 100 μg/mL","P-gp; Caco-2, RB→A/A→B",1.25 ± 0.06
same,"efflux ratio at 180 min, 150 μg/mL","P-gp; Caco-2, RB→A/A→B",0.96 ± 0.02
same,Papp at 180 min,in vitro; Caco-2,0.042 to 0.808 ×10⁻⁶ cm/s
same,"Papp A→B at 180 min, 50 μg/mL",in vitro; [3],137 ± 2 ×10⁻⁶ cm/s
same,"Papp A→B at 180 min, 100 μg/mL",in vitro; [3],176 ± 13 ×10⁻⁶ cm/s
same,"Papp A→B at 180 min, 150 μg/mL",in vitro; [3],268 ± 9 ×10⁻⁶ cm/s
same,"Papp B→A at 180 min, 50 μg/mL",in vitro; [4],129 ± 2 ×10⁻⁶ cm/s
same,"Papp B→A at 180 min, 100 μg/mL",in vitro; [4],210 ± 4 ×10⁻⁶ cm/s
same,"Papp B→A at 180 min, 150 μg/mL",in vitro; [4],283 ± 3 ×10⁻⁶ cm/s
same,"efflux ratio at 180 min, 50 μg/mL","in vitro; Caco-2, RB→A/A→B",0.82 ± 0.04
same,"efflux ratio at 180 min, 100 μg/mL","in vitro; Caco-2, RB→A/A→B",0.75 ± 0.07
same,efflux ratio at 180 min,"in vitro; Caco-2, efflux ratio (RB→A/A→B)",< 1.5
same,"Papp A→B at 180 min, 50 μg/mL",in vitro; [5],380 ± 9 ×10⁻⁶ cm/s
same,"Papp A→B at 180 min, 100 μg/mL",in vitro; [5],409 ± 7 ×10⁻⁶ cm/s
same,"Papp A→B at 180 min, 150 μg/mL",in vitro; [5],649 ± 8 ×10⁻⁶ cm/s
same,"Papp B→A at 180 min, 50 μg/mL",in vitro; [6],448 ± 8 ×10⁻⁶ cm/s
same,"Papp B→A at 180 min, 100 μg/mL",in vitro; [6],536 ± 14 ×10⁻⁶ cm/s
same,"Papp B→A at 180 min, 150 μg/mL",in vitro; [6],718 ± 24 ×10⁻⁶ cm/s
same,"efflux ratio at 180 min, 50 μg/mL","in vitro; Caco-2, pH 5, RB→A/A→B",1.18 ± 0.01
same,"efflux ratio at 180 min, 100 μg/mL","in vitro; Caco-2, pH 5, RB→A/A→B",1.31 ± 0.02
same,"efflux ratio at 180 min, 150 μg/mL","in vitro; Caco-2, pH 5, RB→A/A→B",1.11 ± 0.05
same,"Papp A→B at 180 min, 50 μg/mL",in vitro; [7],473 ± 24 ×10⁻⁶ cm/s
same,"Papp A→B at 180 min, 100 μg/mL",in vitro; [7],468 ± 14 ×10⁻⁶ cm/s
same,"Papp A→B at 180 min, 150 μg/mL",in vitro; [7],618 ± 28 ×10⁻⁶ cm/s
same,"Papp B→A at 180 min, 50 μg/mL",in vitro; [8],568 ± 24 ×10⁻⁶ cm/s
same,"Papp B→A at 180 min, 100 μg/mL",in vitro; [8],614 ± 8 ×10⁻⁶ cm/s
same,"Papp B→A at 180 min, 150 μg/mL",in vitro; [8],808 ± 15 ×10⁻⁶ cm/s
same,"efflux ratio at 180 min, 50 μg/mL","in vitro; Caco-2, pH 6, RB→A/A→B",1.2 ± 0.11
same,efflux ratio at 180 min,"in vitro; Caco-2, pH 6, RB→A/A→B value",~1
same,"Papp A→B at 180 min, 50 μg/mL",in vitro; [9],86 ± 12 ×10⁻⁶ cm/s
same,"Papp A→B at 180 min, 100 μg/mL",in vitro; [9],92 ± 17 ×10⁻⁶ cm/s
same,"Papp A→B at 180 min, 150 μg/mL",in vitro; [9],96 ± 14 ×10⁻⁶ cm/s
same,"Papp B→A at 180 min, 50 μg/mL",in vitro; [10],83 ± 600 ×10⁻⁶ cm/s
same,"Papp B→A at 180 min, 100 μg/mL",in vitro; [10],88 ± 11 ×10⁻⁶ cm/s
same,"Papp B→A at 180 min, 150 μg/mL",in vitro; [10],93 ± 18 ×10⁻⁶ cm/s
same,"efflux ratio at 180 min, 50 μg/mL","in vitro; Caco-2, pH 8, RB→A/A→B",1.03 ± 0.01
same,"efflux ratio at 180 min, 100 μg/mL","in vitro; Caco-2, pH 8, RB→A/A→B",1.04 ± 0.03
same,"Papp A→B at 180 min, 50 μg/mL",in vitro; [11],45 ± 4 ×10⁻⁶ cm/s
same,"Papp A→B at 180 min, 100 μg/mL",in vitro; [11],56 ± 24 ×10⁻⁶ cm/s
same,"Papp A→B at 180 min, 150 μg/mL",in vitro; [11],66 ± 26 ×10⁻⁶ cm/s
same,"Papp B→A at 180 min, 50 μg/mL",in vitro; [12],42 ± 15 ×10⁻⁶ cm/s
same,"Papp B→A at 180 min, 100 μg/mL",in vitro; [12],54 ± 18 ×10⁻⁶ cm/s
same,"Papp B→A at 180 min, 150 μg/mL",in vitro; [12],62 ± 21 ×10⁻⁶ cm/s
same,"efflux ratio at 180 min, 50 μg/mL","in vitro; Caco-2, pH 9, RB→A/A→B",1.07 ± 0.06
"O=C([O-])c1ccccc1-c1c2ccc(=O)cc-2oc2cc([O-])ccc12.[Na+].[Na+] [fluorescein sodium, Fluorescein sodium]",Papp of fluorescein sodium,Caco-2 cells [2],4.06 ± 0.17 × 10^−7 cm/s

# From paper PMC11742250, “Study on the absorption characteristics of euscaphic acid and tiliroside in fruits of Rosa laxa Retz” (PeerJ, 2025)
